Molecules are shown by their SMILES.

The target in this experiment is human PANK3 (Homo sapiens (Human), UniProt Q9H999). Put plainly: PANK activity assay (radiochemical, D-[1-14C]pantothenate). As to conditions: 5 nM human PANK3, 2.5 mM ATP, 45 μM pantothenate, 10 min at 37° C.; average ± data range. Format: biochemical. The procedure: The PanK activity and Surface Plasmon Resonance assays were conducted as explained in the literature.
Chain of human PANK3 (Q9H999 whole entry): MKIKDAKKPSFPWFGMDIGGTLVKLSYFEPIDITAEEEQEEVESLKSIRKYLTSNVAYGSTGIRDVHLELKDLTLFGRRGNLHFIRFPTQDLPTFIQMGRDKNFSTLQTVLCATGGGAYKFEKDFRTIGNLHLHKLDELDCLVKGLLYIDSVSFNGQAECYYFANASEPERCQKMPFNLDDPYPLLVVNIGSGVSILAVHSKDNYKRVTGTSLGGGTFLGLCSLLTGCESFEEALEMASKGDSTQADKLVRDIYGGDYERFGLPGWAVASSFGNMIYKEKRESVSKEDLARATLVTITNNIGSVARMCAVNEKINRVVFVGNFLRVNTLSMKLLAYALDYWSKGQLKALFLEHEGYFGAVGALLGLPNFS
If the IC^50 was determined to be in the nM range then the assay was repeated in the presence of 0-1 μM or 0-0.1 μM compound to more precisely determine the IC^50. All the experiments were repeated twice in duplicate and the data were an average ±data range.
The experiments mimicking the mixture of ligands present in vivo were performed under different conditions. […] The IC^50 values for the structure-activity study were calculated by fitting the inhibition data to a one-site model of the Michaelis-Menten equation. […] Thus, the data were fit to Morrison's quadratic equation (GraphPad software) that accounts for the impact of enzyme inhibitor binding on the free concentration of inhibitor.
As for `CN(C)c1ccc(CC(=O)N2CCN(c3ccc(C#N)nn3)CC2)cn1` [PZ-4069, 6-(4-(2-(6-(dimethylamino)pyridin-3-yl)acetyl)piperazin-1-yl)pyridazine-3-carbonitrile], half-maximal inhibition (IC50) was put at 440 ± 45 nM.

For the compound `CC(=O)Nc1ccc(CC(=O)N2CCN(c3ccc(C#N)nn3)CC2)cc1` [PZ-4070, N-(4-(2-(4-(6-cyanopyridazin-3-yl)piperazin-1-yl)-2-oxoethyl)phenyl)acetamide], the half-inhibitory concentration (IC50) amounted to 65 ± 9.8 nM.

Compound `C[C@H]1CN(c2ccc(Cl)nn2)CCN1C(=O)Cc1ccc(N(C)C)cc1` [PZ-4111] came in with a 50% inhibitory concentration (IC50) of 11.1 ± 0.7 nM.

`C[C@@H]1CN(c2ccc(Cl)nn2)CCN1C(=O)Cc1ccc(N(C)C)cc1` [PZ-4112] had a concentration for half-maximal inhibition (IC50) of 39.7 ± 4.7 nM.

With `CN(c1ccc(CC(=O)N2CCN(c3ccc(Cl)nn3)CC2)cc1)S(C)(=O)=O` [PZ-4200], the IC50 was 120 ± 11.2 nM.

`CN(C)c1ccc(CC(=O)N2CCN(c3nc4ccccc4s3)CC2)cc1` [PZ-4290] had an IC50 of 370 ± 47 nM.

`O=C(Cc1ccc(C2CC2)cc1)N1CCN(c2nc3cc(F)ccc3o2)CC1` [PZ-4303] gave an IC50 of 54 ± 6.4 nM.

For the compound `O=C(Cc1ccc(C2CC2)cc1)N1CCN(c2nc3ccccc3o2)CC1` [PZ-4305], inhibition was half-maximal at 173 ± 48.5 nM (IC50).

In the case of `O=C(Cc1ccc(C2CC2)cc1)N1CCN(c2nc3ccccc3[nH]2)CC1` [PZ-4312], half-maximal inhibition (IC50) was put at 987 ± 476 nM.

`CN(C)c1ccc(CC(=O)N2CCN(c3nc4cccnc4s3)CC2)cc1` [PZ-4317] came in with an IC50 of 391 ± 129 nM.

Compound `CN(C)c1ccc(CC(=O)N2CCN(c3nc4c(F)cccc4s3)CC2)cc1` [PZ-4318] registered an IC50 of 183 ± 71 nM.

The compound `CN(C)c1ccc(CC(=O)N2CCN(c3nc4cccnc4o3)CC2)cc1` [PZ-4319] had an IC50 of 346 ± 100 nM.

Compound `CS(=O)(=O)Nc1ccc(CC(=O)N2CCN(c3nc4cccnc4s3)CC2)cc1` [PZ-4321] had a half-inhibitory concentration (IC50) of 5.67 ± 0.39 nM.

`CS(=O)(=O)Nc1ccc(CC(=O)N2CCN(c3nc4cccnc4o3)CC2)cc1` [PZ-4323] returned a concentration for half-maximal inhibition (IC50) of 9.9 ± 1.6 nM.

For `O=C(Cc1ccc(C2CC2)c(F)c1)N1CCN(c2nc3cccnc3o2)CC1` [PZ-4343], half-maximal inhibition (IC50) required 49 ± 3 nM.

Regarding `O=C(Cc1ccc(C2CC2)cc1F)N1CCN(c2nc3cccnc3o2)CC1` [PZ-4344], the IC50 worked out at 7.6 ± 0.48 nM.

In turn, `O=C(Cc1ccc(C2CC2)c(F)c1)N1CCN(c2nc3ncccc3o2)CC1` [PZ-4348] returned an IC50 of 5.7 ± 0.49 nM.

Regarding `O=C(Cc1ccc(C2CC2)cc1F)N1CCN(c2nc3ncccc3o2)CC1` [PZ-4349], the half-inhibitory concentration (IC50) stood at 2.1 ± 0.26 nM.

`O=C(Cc1ccc(C2CC2)cc1)N1CCN(c2nc3ncc(F)cc3o2)CC1` [PZ-4350, 2-(4-cyclopropylphenyl)-1-(4-(6-fluorooxazolo[4,5-b]pyridin-2-yl)piperazin-1-yl)ethenone] returned a half-inhibitory concentration (IC50) of 1.1 ± 0.12 nM.

In turn, `O=C(Cc1ccc(C2CC2)cc1F)N1CCN(c2nc3ncc(F)cc3o2)CC1` [PZ-4352] displayed an IC50 of 0.86 ± 0.078 nM.

Turning to `CS(=O)(=O)Nc1ccc(CC(=O)N2CCN(c3nc4ncc(F)cc4o3)CC2)cc1` [PZ-4357], the IC50 worked out at 1.95 ± 0.25 nM.

The compound `O=C(Cc1ccc(C2CC2)cc1)N1CCN(c2nc3ncc(Cl)cc3o2)CC1` [PZ-4359] yielded a 50% inhibitory concentration (IC50) of 1.23 ± 0.17 nM.

Consider `O=C(Cc1ccc(C2CC2)c(F)c1)N1CCN(c2nc3ncc(Cl)cc3o2)CC1` [PZ-4360], for which the IC50 came to 5.6 ± 0.88 nM.

Take `O=C(Cc1ccc(C2CC2)cc1F)N1CCN(c2nc3ncc(Cl)cc3o2)CC1` [PZ-4361]: the concentration for half-maximal inhibition (IC50) worked out at 0.81 ± 0.15 nM.

As for `O=C(Cc1ccc(Cl)cc1)N1CCN(c2nc3ncc(F)cc3o2)CC1` [PZ-4363], 37.5 ± 2.4 nM corresponded to half-maximal inhibition (IC50).

In turn, `Cc1ccc2oc(N3CCN(C(=O)Cc4ccc(C5CC5)cc4)CC3)nc2n1` [PZ-4364] returned an IC50 of 77.3 ± 8.2 nM.

`O=C(Cc1ccc(C2CC2)cc1F)N1CCN(c2nc3ccc(F)cc3o2)CC1` [PZ-4383] displayed an IC50 of 3.4 ± 0.33 nM.

The compound `O=C(Cc1ccc(C2CC2)cc1)N1CCN(c2nc3cc(F)cnc3o2)CC1` [PZ-4386] returned an IC50 of 2.1 ± 0.21 nM.

For the compound `CC(C)c1ccc(CC(=O)N2CCN(c3nc4cccnc4s3)CC2)cc1` [PZ-4432], half-maximal inhibition (IC50) required 3.95 ± 0.26 nM.

`O=C(Nc1ccc(C2CC2)cc1F)N1CCN(c2nc3c(F)cc(F)cc3s2)CC1` [PZ-4433] gave an IC50 of 1.79 ± 0.09 nM.

Turning to `CC(C)c1ccc(NC(=O)N2CCN(c3nc4c(F)cc(F)cc4s3)CC2)cc1` [PZ-4434], the 50% inhibitory concentration (IC50) is 1.04 ± 0.06 nM.

The compound `CC(C)c1ccc(CC(=O)N2CCN(c3nc4ncc(F)cc4o3)CC2)cc1` [PZ-4435] gave an IC50 of 0.33 ± 0.02 nM.

Consider `O=C(Oc1ccc(C2CC2)cc1)N1CCN(c2nc3ncc(F)cc3o2)CC1` [PZ-4436], for which the IC50 was determined as 2 ± 0.18 nM.

Take `CC(C)c1ccc(CC(=O)N2CCN(c3nc4cc(F)cnc4o3)CC2)cc1` [PZ-4462]: the half-inhibitory concentration (IC50) worked out at 1.37 ± 0.16 nM.

In turn, `O=C(Cc1ccc(C2CC2)cc1)N1CCN(c2nc3cc(F)cnc3o2)CC1` [PZ-4463] had an IC50 of 10.3 ± 0.55 nM.

For `CN(C)c1ccc(CC(=O)N2CCN(c3nc4ncc(F)cc4o3)CC2)cc1` [PZ-4467], half-maximal inhibition (IC50) required 2.62 ± 0.18 nM.

On to `CC(C)c1ccc(CC(=O)NCC2(CCl)CN(c3ccc(Cl)nn3)C2)cc1` [PZ-4468], for which inhibition was half-maximal at 1.2 ± 0.13 nM (IC50).

As to `O=C(Cc1ccc(C2CC2)cc1)NCC1(CCl)CN(c2ccc(Cl)nn2)C1` [PZ-4469, N-((3-(chloromethyl)-1-(6-chloropyridazin-3-yl)azetidin-3-yl)methyl)-2-(4-cyclopropylphenyl)acetamide], the concentration for half-maximal inhibition (IC50) was found to be 5.4 ± 0.42 nM.

The compound `C[C@@H]1CN(c2nc3cc(F)cnc3o2)CCN1C(=O)Cc1ccc(C2CC2)cc1` [PZ-4470] had an IC50 of 3.88 ± 0.24 nM.

Regarding `CC(C)c1ccc(CC(=O)N2CCN(c3nc4cc(F)cnc4o3)C[C@H]2C)cc1` [PZ-4471], half-maximal inhibition (IC50) was put at 0.88 ± 0.09 nM.

Compound `O=C(Cc1ccc(C2CC2)cc1)NCC1(CCl)CN(c2nc3cc(F)cnc3o2)C1` [PZ-4472] registered a concentration for half-maximal inhibition (IC50) of 21.8 ± 1.78 nM.

Compound `CC(C)c1ccc(CC(=O)NCC2(CCl)CN(c3nc4cc(F)cnc4o3)C2)cc1` [PZ-4473] yielded an IC50 of 7.51 ± 0.62 nM.

Turning to `C[C@H]1CN(C(=O)Cc2ccc(C3CC3)cc2)CCN1c1nc2cc(F)cnc2o1` [PZ-4474], the 50% inhibitory concentration (IC50) amounted to 1.37 ± 0.14 nM.

With `CC(C)c1ccc(CC(=O)N2CCN(c3nc4cc(F)cnc4o3)[C@@H](C)C2)cc1` [PZ-4475], it took 0.76 ± 0.05 nM to reach half-maximal inhibition (IC50).

Compound `CC(C)c1ccc(CC(=O)N2CCN(c3ncc4ccsc4n3)CC2)cc1` [PZ-4478] had an IC50 of 125 ± 19.2 nM.

`O=C(Cc1ccc(C2CC2)cc1)N1CCN(c2ncc3ccsc3n2)CC1` [PZ-4479] came in with an IC50 of 713 ± 294 nM.

`CC(=O)OCC1(CNC(=O)Cc2ccc(C3CC3)cc2)CN(c2ccc(Cl)nn2)C1` [PZ-4510] had an IC50 of 1110 ± 852 nM.

With `O=C(Cc1ccc(C2CC2)cc1)NCC1(CO)CN(c2ccc(Cl)nn2)C1` [PZ-4511, N-((1-(6-chloropyridazin-3-yl)-3-(hydroxymethyl)azetidin-3-yl)methyl)-2-(4-cyclopropylphenyl)acetamide], the IC50 turned out to be 606 ± 237 nM.

The record behind these values is patent publication US12534451B2, “Small molecule modulators of PanK” (St. Jude Children's Research Hospital, priority 2019, dated 2026).
